Measured values reported in BindingDB's records for doi:10.1016/0960-894X(96)00376-9 (1996).

Assay: Binding affinity against human Alpha-1b adrenergic receptor
For `Brc1ccc2c(-c3c[nH]c(-c4c[nH]c5ccccc45)n3)c[nH]c2c1` [Nortopsentin C], the Ki was 0.17 µM. Molecule `O=C(c1nc(-c2c[nH]c3cc(Br)ccc23)c[nH]1)c1c[nH]c2cc(O)ccc12` [topsentin B2] has a Ki of 0.74 µM. `Brc1ccc2c(-c3c[nH]c(-c4c[nH]c5cc(Br)ccc45)n3)c[nH]c2c1` [Nortopsentin A] gave a Ki of 0.52 µM. `O=C(c1nc(-c2c[nH]c3ccccc23)c[nH]1)c1c[nH]c2cc(O)ccc12` showed a Ki of 1.15 µM. With `Brc1ccc2c(-c3nc(-c4c[nH]c5ccccc45)c[nH]3)c[nH]c2c1` [Nortopsentin B] the Ki was 0.13 µM.
